# Measured values as given in patent US9049863B2, “Substituted (3R,4R)-4-cyan-3,4-diphenylbutanoates, method for the production thereof and use thereof as herbicides and plant growth regulators” (Bayer Intellectual Property GmbH, priority 2011, dated 2015).
# System: a plurality of harmful plants
# Assay: Herbicidal pre-emergence action
# Type: in vivo
# Conditions: 320 g or less of active substance per hectare
# Source text: Seeds of monocotyledonous and dicotyledonous weed plants and crop plants are placed in wood-fiber pots in sandy loam and covered with soil. The compounds (I) according to the invention, formulated in the form of wettable powders (WP), are then applied as aqueous suspension or emulsion at a water application rate of 600 l/ha (converted) with the addition of 0.2% of wetting agent to the surface of the covering soil.
# After the treatment, the pots are placed in a greenhouse and kept under good growth conditions for the test plants. After about 3 weeks, the effect of the preparations is scored visually in comparison with untreated controls as percentages. For example, 100% activity=the plants have died, 50% herbicidal activity or damage=the plants have been reduced by 50% or the plant mass has been reduced by 50%, 0% activity=like control plants.
row,Compound,herbicidal activity against a plurality of harmful plants
1,N#C[C@@H](c1cccc(F)c1)[C@@H](CC(=O)OC1COC1)c1ccc(Cl)cc1 [Example 53],good herbicidal activity
2,COC(=O)C[C@@H](c1ccccc1F)[C@@H](C#N)c1ccc(F)c(F)c1 [Example 17],good herbicidal activity
3,COC(=O)C[C@@H](c1cccc(F)c1F)[C@@H](C#N)c1cccc(F)c1 [Example 18],good herbicidal activity
4,COC(=O)C[C@@H](c1cccc(Cl)c1)[C@@H](C#N)c1ccc(F)cc1 [Example 15],good herbicidal activity
5,COC(=O)C[C@@H](c1cccc(F)c1)[C@@H](C#N)c1ccc(F)c(C#N)c1 [Example 339],good herbicidal activity
6,COC(=O)C[C@@H](c1c(F)cccc1F)[C@@H](C#N)c1ccc(F)c(Br)c1 [Example 359],good herbicidal activity
7,COC(=O)C[C@@H](c1ccc(Cl)c(F)c1)[C@@H](C#N)c1ccc(F)c(F)c1 [Example 16],good herbicidal activity
8,COC(=O)C[C@@H](c1c(F)cccc1F)[C@@H](C#N)c1ccc(F)c(Cl)c1 [Example 227],good herbicidal activity
9,COC(=O)C[C@@H](c1cc(F)cc(F)c1)[C@@H](C#N)c1ccc(F)cc1 [Example 19],good herbicidal activity
10,COC(=O)C[C@@H](c1ccc(F)cc1)[C@@H](C#N)c1cccc(F)c1 [Example 20],good herbicidal activity
11,COC(=O)C[C@@H](c1cccc(Cl)c1)[C@@H](C#N)c1ccc(Cl)c(F)c1 [Example 27],good herbicidal activity
12,COC(=O)C[C@@H](c1cc(F)ccc1F)[C@@H](C#N)c1cccc(F)c1 [Example 23],good herbicidal activity
13,CCOC(=O)C[C@@H](c1ccc(OC)cc1)[C@@H](C#N)c1ccc(F)c(F)c1 [Example 31],good herbicidal activity
14,"N#C[C@@H](c1ccc(F)c(F)c1)[C@@H](CC(=O)O)c1cccc(Cl)c1 [Example 107, (3R,4R)-3-(3-Chlorophenyl)-4-cyano-4-(3,4-difluorophenyl)butanoic acid]",good herbicidal activity
15,COC(=O)C[C@@H](c1ccc(OC)c(F)c1)[C@@H](C#N)c1ccc(F)c(F)c1 [Example 390],good herbicidal activity
16,CCCOC(=O)C[C@@H](c1cccc(F)c1)[C@@H](C#N)c1ccc(F)c(F)c1 [Example 84],good herbicidal activity
17,COC(=O)C[C@@H](c1ccc(Cl)cc1)[C@@H](C#N)c1cccc(C#N)c1 [Example 329],good herbicidal activity
18,COC(=O)C[C@@H](c1cccc(Cl)c1)[C@@H](C#N)c1cccc(F)c1 [Example 9],good herbicidal activity
19,COC(=O)C[C@@H](c1ccccc1)[C@@H](C#N)c1ccc(F)c(F)c1 [Example 29],good herbicidal activity

row,Compound,herbicidal activity against a plurality of harmful plants
1,N#C[C@@H](c1cccc(F)c1)[C@@H](CC(=O)OCCSc1ccccc1)c1ccc(Cl)cc1 [Example 54],good herbicidal activity
2,COC(=O)C[C@@H](c1cc(F)ccc1F)[C@@H](C#N)c1ccc(F)c(C#N)c1 [Example 344],good herbicidal activity
3,COC(=O)C[C@@H](c1cccc(F)c1)[C@@H](C#N)c1cc(F)cc(F)c1 [Example 12],good herbicidal activity
4,COC(=O)C[C@@H](c1ccc(Cl)cc1)[C@@H](C#N)c1ccc(F)c(C#N)c1 [Example 343],good herbicidal activity
5,COC(=O)C[C@@H](c1cccc(Cl)c1)[C@@H](C#N)c1ccc(F)c(C#N)c1 [Example 340],good herbicidal activity
6,COC(=O)C[C@@H](c1ccc(Cl)cc1)[C@@H](C#N)c1ccc(F)c(F)c1 [Example 3],good herbicidal activity
7,"COC(=O)C[C@@H](c1cccc(Cl)c1)[C@@H](C#N)c1ccc(F)c(F)c1 [Example 10, Methyl (3R,4R)-3-(3-chlorophenyl)-4-cyano-4-(3,4-difluorophenyl)butanoate]",good herbicidal activity
8,CC(C)OC(=O)C[C@@H](c1cccc(F)c1)[C@@H](C#N)c1ccc(F)c(F)c1 [Example 85],good herbicidal activity
9,COC(=O)C[C@@H](c1cc(F)ccc1F)[C@@H](C#N)c1ccc(Cl)c(Cl)c1 [Example 208],good herbicidal activity
10,COC(=O)C[C@@H](c1cccc(F)c1)[C@@H](C#N)c1cccc(Cl)c1 [Example 5],good herbicidal activity
11,COC(=O)C[C@@H](c1cccc(F)c1)[C@@H](C#N)c1ccc(F)c(F)c1 [Example 6],good herbicidal activity
12,COC(=O)C[C@@H](c1cc(F)cc(Cl)c1)[C@@H](C#N)c1cccc(F)c1 [Example 22],good herbicidal activity
13,COC(=O)C[C@@H](c1ccccc1F)[C@@H](C#N)c1cccc(F)c1 [Example 13],good herbicidal activity
14,COC(=O)C[C@@H](c1ccc(Cl)cc1)[C@@H](C#N)c1cc(F)c(F)c(F)c1 [Example 14],good herbicidal activity
15,COC(=O)C[C@@H](c1cc(F)ccc1F)[C@@H](C#N)c1ccc(F)c(F)c1 [Example 25],good herbicidal activity
16,CCOC(=O)C[C@@H](c1cccc(F)c1)[C@@H](C#N)c1ccc(F)c(F)c1 [Example 83],good herbicidal activity
17,CCOC(=O)C[C@@H](c1cccc(Cl)c1)[C@@H](C#N)c1ccc(F)c(F)c1 [Example 108],good herbicidal activity
18,COC(=O)C[C@@H](c1cccc(F)c1)[C@@H](C#N)c1cccc(F)c1 [Example 2],good herbicidal activity
19,CC(C)COC(=O)C[C@@H](c1cccc(F)c1)[C@@H](C#N)c1ccc(F)c(F)c1 [Example 87],good herbicidal activity

row,Compound,herbicidal activity against a plurality of harmful plants
1,COC(=O)C[C@@H](c1cc(F)ccc1F)[C@@H](C#N)c1ccc(F)c(Br)c1 [Example 358],good herbicidal activity
2,N#C[C@@H](c1cccc(F)c1)[C@@H](CC(=O)OCC[S+]([O-])c1ccccc1)c1ccc(Cl)cc1 (some centres unmarked) [Example 55],good herbicidal activity
3,CC(C)COC(=O)C[C@@H](c1cccc(Cl)c1)[C@@H](C#N)c1ccc(F)c(F)c1 [Example 112],good herbicidal activity
4,COC(=O)C[C@@H](c1ccc(Br)cc1)[C@@H](C#N)c1cccc(F)c1 [Example 4],good herbicidal activity
5,CCCCOC(=O)C[C@@H](c1cccc(Cl)c1)[C@@H](C#N)c1ccc(F)c(F)c1 [Example 111],good herbicidal activity
6,COC(=O)C[C@@H](c1cccc(F)c1F)[C@@H](C#N)c1ccc(F)c(F)c1 [Example 24],good herbicidal activity
7,COC(=O)C[C@@H](c1cc(F)ccc1F)[C@@H](C#N)c1cccc(C#N)c1 [Example 330],good herbicidal activity
8,COC(=O)C[C@@H](c1cccc(Cl)c1)[C@@H](C#N)c1cccc(C#N)c1 [Example 326],good herbicidal activity
9,COC(=O)C[C@@H](c1cccc(F)c1)[C@@H](C#N)c1ccccc1 [Example 7],good herbicidal activity
10,COC(=O)C[C@@H](c1c(F)cccc1F)[C@@H](C#N)c1cccc(F)c1 [Example 162],good herbicidal activity
11,COC(=O)C[C@@H](c1cccc(F)c1)[C@@H](C#N)c1cccc(Br)c1 [Example 11],good herbicidal activity
12,CCOC(=O)C[C@@H](c1c(F)cccc1F)[C@@H](C#N)c1ccc(F)c(F)c1 [Example 283],good herbicidal activity
13,COC(=O)C[C@@H](c1cccc(F)c1)[C@@H](C#N)c1ccc(F)cc1 [Example 8],good herbicidal activity
14,COC(=O)C[C@@H](c1cc(F)cc(Cl)c1)[C@@H](C#N)c1ccc(F)c(F)c1 [Example 21],good herbicidal activity
15,COC(=O)C[C@@H](c1cc(F)cc(Cl)c1)[C@@H](C#N)c1cccc(Cl)c1 [Example 26],good herbicidal activity
16,COC(=O)C[C@@H](c1cccc(F)c1)[C@@H](C#N)c1ccc(F)c(Cl)c1 [Example 30],good herbicidal activity
17,COC(=O)C[C@@H](c1cccc([N+](=O)[O-])c1)[C@@H](C#N)c1ccc(F)c(F)c1 [Example 28],good herbicidal activity
18,COC(=O)C[C@@H](c1c(F)cccc1F)[C@@H](C#N)c1ccc(F)c(F)c1 [Example 174],good herbicidal activity
